# The source made the active and inactive calls. The rule behind the calls is not given here.
# Tested on: CCRIS mutagenicity, Ames/micronucleus/aberration tests
# Experiment: CCRIS mutagenicity studies
# [1] = Test System: AMES SALMONELLA TYPHIMURIUM, Strain/Indicator: TA98, Metabolic Activation: NONE, Method: PREINCUBATION
# [2] = Test System: AMES SALMONELLA TYPHIMURIUM, Strain/Indicator: TA98, Metabolic Activation: NONE, Method: STANDARD PLATE
# [3] = Test System: AMES SALMONELLA TYPHIMURIUM, Strain/Indicator: TA98, Metabolic Activation: RAT, LIVER, S-9, AROCLOR 1254, Method: PREINCUBATION
# [4] = Test System: AMES SALMONELLA TYPHIMURIUM, Strain/Indicator: TA100, Metabolic Activation: NONE, Method: PREINCUBATION
# [5] = Test System: AMES SALMONELLA TYPHIMURIUM, Strain/Indicator: TA100, Metabolic Activation: NONE, Method: STANDARD PLATE
# [6] = Test System: AMES SALMONELLA TYPHIMURIUM, Strain/Indicator: TA100, Metabolic Activation: RAT, LIVER, S-9, AROCLOR 1254, Method: PREINCUBATION
# [7] = Test System: AMES SALMONELLA TYPHIMURIUM, Strain/Indicator: TA1535, Metabolic Activation: NONE, Method: STANDARD PLATE
# [8] = Test System: AMES SALMONELLA TYPHIMURIUM, Strain/Indicator: TA1537, Metabolic Activation: NONE, Method: STANDARD PLATE
# [9] = Test System: AMES SALMONELLA TYPHIMURIUM, Strain/Indicator: TA98, Metabolic Activation: S-9, Method: STANDARD PLATE
# [10] = Test System: AMES SALMONELLA TYPHIMURIUM, Strain/Indicator: TA100, Metabolic Activation: S-9, Method: STANDARD PLATE
structure (smiles),measurement,setting,value
O=C(CCCN1CCC(O)(c2ccc(Cl)cc2)CC1)c1ccc(F)cc1,mutagenic call,"End Point: IN VITRO CHROMOSOMAL ABERRATIONS, Test System: HUMAN LYMPHOCYTES, Metabolic Activation: NONE",inactive; negative
same,mutagenic call,"End Point: IN VIVO CHROMOSOMAL ABERRATIONS, Test System: LYMPHOCYTES, Species: HUMAN, Strain/Sex: MALE, Route: ORAL",inactive; negative
same,mutagenic call,"Test System: AMES SALMONELLA TYPHIMURIUM, Strain/Indicator: TA98, Metabolic Activation: MOUSE, LIVER, S-9, AROCLOR 1254, Method: STANDARD PLATE",inactive; negative
same,mutagenic call,"Test System: AMES SALMONELLA TYPHIMURIUM, Strain/Indicator: TA98, Metabolic Activation: MOUSE, LIVER, S-9, Method: STANDARD PLATE",inactive; negative
same,mutagenic call,[1],inactive; negative
same,mutagenic call,[2],inactive; negative
same,mutagenic call,[3],inactive; negative
same,mutagenic call,"Test System: AMES SALMONELLA TYPHIMURIUM, Strain/Indicator: TA98, Metabolic Activation: RAT, LIVER, S-9, AROCLOR 1254, Method: STANDARD PLATE",inactive; negative
same,mutagenic call,"Test System: AMES SALMONELLA TYPHIMURIUM, Strain/Indicator: TA100, Metabolic Activation: MOUSE, LIVER, S-9, AROCLOR 1254, Method: STANDARD PLATE",inactive; negative
same,mutagenic call,"Test System: AMES SALMONELLA TYPHIMURIUM, Strain/Indicator: TA100, Metabolic Activation: MOUSE, LIVER, S-9, Method: STANDARD PLATE",inactive; negative
same,mutagenic call,[4],inactive; negative
same,mutagenic call,[5],inactive; negative
same,mutagenic call,[6],inactive; negative
same,mutagenic call,"Test System: AMES SALMONELLA TYPHIMURIUM, Strain/Indicator: TA100, Metabolic Activation: RAT, LIVER, S-9, AROCLOR 1254, Method: STANDARD PLATE",inactive; negative
same,mutagenic call,"Test System: AMES SALMONELLA TYPHIMURIUM, Strain/Indicator: TA1530, Metabolic Activation: MOUSE, LIVER, S-9, AROCLOR 1254, Method: STANDARD PLATE",inactive; negative
same,mutagenic call,"Test System: AMES SALMONELLA TYPHIMURIUM, Strain/Indicator: TA1530, Metabolic Activation: MOUSE, LIVER, S-9, Method: STANDARD PLATE",inactive; negative
same,mutagenic call,"Test System: AMES SALMONELLA TYPHIMURIUM, Strain/Indicator: TA1530, Metabolic Activation: NONE, Method: STANDARD PLATE",inactive; negative
same,mutagenic call,"Test System: AMES SALMONELLA TYPHIMURIUM, Strain/Indicator: TA1530, Metabolic Activation: RAT, LIVER, S-9, AROCLOR 1254, Method: STANDARD PLATE",inactive; negative
same,mutagenic call,"Test System: AMES SALMONELLA TYPHIMURIUM, Strain/Indicator: TA1535, Metabolic Activation: MOUSE, LIVER, S-9, AROCLOR 1254, Method: STANDARD PLATE",inactive; negative
same,mutagenic call,"Test System: AMES SALMONELLA TYPHIMURIUM, Strain/Indicator: TA1535, Metabolic Activation: MOUSE, LIVER, S-9, Method: STANDARD PLATE",inactive; negative
same,mutagenic call,[7],inactive; negative
same,mutagenic call,"Test System: AMES SALMONELLA TYPHIMURIUM, Strain/Indicator: TA1535, Metabolic Activation: RAT, LIVER, S-9, AROCLOR 1254, Method: STANDARD PLATE",inactive; negative
same,mutagenic call,[8],inactive; negative
same,mutagenic call,"Test System: AMES SALMONELLA TYPHIMURIUM, Strain/Indicator: TA1537, Metabolic Activation: RAT, LIVER, S-9, AROCLOR 1254, Method: STANDARD PLATE",inactive; negative
same,mutagenic call,"Test System: AMES SALMONELLA TYPHIMURIUM, Strain/Indicator: TA1538, Metabolic Activation: MOUSE, LIVER, S-9, AROCLOR 1254, Method: STANDARD PLATE",inactive; negative
same,mutagenic call,"Test System: AMES SALMONELLA TYPHIMURIUM, Strain/Indicator: TA1538, Metabolic Activation: MOUSE, LIVER, S-9, Method: STANDARD PLATE",inactive; negative
same,mutagenic call,"Test System: AMES SALMONELLA TYPHIMURIUM, Strain/Indicator: TA1538, Metabolic Activation: NONE, Method: STANDARD PLATE",inactive; negative
same,mutagenic call,"Test System: AMES SALMONELLA TYPHIMURIUM, Strain/Indicator: TA1538, Metabolic Activation: RAT, LIVER, S-9, AROCLOR 1254, Method: STANDARD PLATE",inactive; negative
O=[N+]([O-])c1ccc(Br)cc1,mutagenic call,"End Point: IN VITRO CHROMOSOMAL ABERRATIONS, Test System: HUMAN PERIPHERAL LYMPHOCYTES, Metabolic Activation: NONE",inactive; negative
same,mutagenic call,[1],inactive; negative
same,mutagenic call,"Test System: AMES SALMONELLA TYPHIMURIUM, Strain/Indicator: TA98, Metabolic Activation: RAT, LIVER, S-9, KANECHLOR 500, Method: PREINCUBATION",inactive; negative
same,mutagenic call,[4],inactive; negative
same,mutagenic call,"Test System: AMES SALMONELLA TYPHIMURIUM, Strain/Indicator: TA100, Metabolic Activation: RAT, LIVER, S-9, KANECHLOR 500, Method: PREINCUBATION",active; positive
COc1cc(C(C)=O)cc(OC)c1O,mutagenic call,"Test System: AMES SALMONELLA TYPHIMURIUM, Strain/Indicator: TA97, Metabolic Activation: NONE, Method: PREINCUBATION",inactive; negative
same,mutagenic call,"Test System: AMES SALMONELLA TYPHIMURIUM, Strain/Indicator: TA97, Metabolic Activation: RAT, LIVER, S-9, AROCLOR 1254, Method: PREINCUBATION",inactive; negative
same,mutagenic call,[1],inactive; negative
same,mutagenic call,[3],inactive; negative
same,mutagenic call,[4],inactive; negative
same,mutagenic call,[6],inactive; negative
same,mutagenic call,"Test System: AMES SALMONELLA TYPHIMURIUM, Strain/Indicator: TA102, Metabolic Activation: NONE, Method: PREINCUBATION",inactive; negative
same,mutagenic call,"Test System: AMES SALMONELLA TYPHIMURIUM, Strain/Indicator: TA102, Metabolic Activation: RAT, LIVER, S-9, AROCLOR 1254, Method: PREINCUBATION",inactive; negative
CNc1snc2ccccc12,mutagenic call,[2],inactive; negative
same,mutagenic call,[9],inactive; negative
same,mutagenic call,[5],inactive; negative
same,mutagenic call,[10],inactive; negative
same,mutagenic call,[7],inactive; negative
same,mutagenic call,"Test System: AMES SALMONELLA TYPHIMURIUM, Strain/Indicator: TA1535, Metabolic Activation: S-9, Method: STANDARD PLATE",inactive; negative
same,mutagenic call,[8],inactive; negative
same,mutagenic call,"Test System: AMES SALMONELLA TYPHIMURIUM, Strain/Indicator: TA1537, Metabolic Activation: S-9, Method: STANDARD PLATE",inactive; negative
CC(C)(N=NC(C)(C)C(=N)N)C(=N)N,mutagenic call,[1],active; positive
same,mutagenic call,"Test System: AMES SALMONELLA TYPHIMURIUM, Strain/Indicator: TA98, Metabolic Activation: RAT, LIVER, S-9, PHENOBARBITAL AND 5,6-BENZOFLAVONE, Method: PREINCUBATION",active; positive
same,mutagenic call,[4],active; positive
same,mutagenic call,"Test System: AMES SALMONELLA TYPHIMURIUM, Strain/Indicator: TA100, Metabolic Activation: RAT, LIVER, S-9, PHENOBARBITAL AND 5,6-BENZOFLAVONE, Method: PREINCUBATION",active; positive
ONc1ccc(-c2ccccc2)cc1,mutagenic call,"Test System: AMES SALMONELLA TYPHIMURIUM, Strain/Indicator: TA98(1,8-DNP6), Metabolic Activation: NONE, Method: PREINCUBATION",active; positive
same,mutagenic call,[1],active; positive
same,mutagenic call,[2],active; positive
same,mutagenic call,[9],active; positive
same,mutagenic call,[5],active; positive
same,mutagenic call,[10],active; positive
same,mutagenic call,[7],inactive; negative
same,mutagenic call,"Test System: AMES SALMONELLA TYPHIMURIUM, Strain/Indicator: YG1024, Metabolic Activation: NONE, Method: PREINCUBATION",active; positive
same,mutagenic call,"Test System: E. COLI, Strain/Indicator: WP2, Metabolic Activation: NONE, Method: PREINCUBATION",active; positive
same,mutagenic call,"Test System: E. COLI, Strain/Indicator: WP2 UVRA(P), Metabolic Activation: NONE, Method: STANDARD PLATE",active; positive
same,mutagenic call,"Test System: E. COLI, Strain/Indicator: WP2 UVRA, Metabolic Activation: NONE, Method: FLUCTUATION TEST",active; positive
same,mutagenic call,"Test System: E. COLI, Strain/Indicator: WP2 UVRA, Metabolic Activation: NONE, Method: PREINCUBATION",active; positive
same,mutagenic call,"Test System: E. COLI, Strain/Indicator: WP2 UVRA, Metabolic Activation: NONE, Method: STANDARD PLATE",active; positive
C=CC(=O)OCCC,mutagenic call,"Test System: MOUSE LYMPHOMA, Strain/Indicator: L5178Y (TK+/TK-), Metabolic Activation: NONE, Method: SUSPENSION/PLATE",active; positive. reevaluation of results: positive
same,mutagenic call,"Test System: MOUSE LYMPHOMA, Strain/Indicator: L5178Y (TK+/TK-), Metabolic Activation: RAT, LIVER, S-9, AROCLOR 1254, Method: SUSPENSION/PLATE",active; positive. reevaluation of results: positive

# Source: PubChem BioAssay AID1259407 (Chemical Carcinogenesis Research Information System (CCRIS), 2018)
